Reference: patent publication US20160222021A1, “ARYL ETHER-BASE KINASE INHIBITORS” (BRISTOL-MYERS SQUIBB COMPANY, priority 2013, published 2016)

Columns and labels:
[1] = target: AAK1 (full length human) in HEK293F cells (Homo sapiens, UniProt Q2M2I8); assay: HEK293F Cell-Based Assay (phospho-mu2 Western blot); settings: 3 hours
Procedure: HEK293F cells were cultured in media containing DMEM (Gibco, cat. #11965), 10% FBS (SAFC Biosciences, cat. #12103C), 1×GPS (glutamine, penicillin and streptomycin). On day one, cells were plated on a 10 cm dish so that they are ˜80% confluent at time of transfection. Roughly 12 million cells were in a 10 cm dish at time of transfection. On day two, each dish was transfected with 48 ug DNA and 144 ul Lipofectamine 2000 (Invitrogen, cat. #11668-019). The DNA was comprised of a mixture (per 10 cm dish) containing 3 ug AAK1/HA/pIRES (full length human, NCBI accession no. NP_055726.2), 45 μg Flag/AP2MI/pcDNA (full length human), and 1.5 ml OPTI-MEM. The Lipofectamine 2000 is made up of a mixture (per 10 cm dish) containing 144 μl Lipofectamine 2000 and 1.5 ml OPTI-MEM. Each mixture was transferred to individual 15 ml tubes and incubated at RT for 5 minutes, and then the two mixes were combined and incubated at RT for 20 minutes. Growth media was then aspirated from each 10 cm plate and replaced with 10 ml of DMEM+10% FBS (no GPS). Finally, 3 ml DNA/Lipofectamine mix was added to each 10 cm dish and mix gently followed by incubate of plate overnight at 37° C. and 5% CO2.
On day three, compounds were diluted in 100% DMSO at 1000× final concentration, followed by 3-fold serial dilutions for a total of 5 concentrations tested. Four compounds were tested per 10 cm dish. One ul of each compound dilution was then pipetted into a deep-well, 96-well plate, followed by addition of 500 μl DMEM+0.5% FBS into each well for a 2× final concentration of each compound. Cells were resuspended in a 10 cm dish by simple pipetting (HEK293 cells come off the plate that easy at this point) and then transferred to a 50 ml conical tube and pelleted by centrifugation at 1000 rpm for 5 min. Cell pellets were then resuspended in 2.75 ml DMEM+0.5% FBS per 10 cm dish and 100 μl of cell suspension transferred into each well of 96-well TC plate. Finally, 100 μl of 2× compound diluted in DMEM+0.5% FBS was then added into wells containing cell suspension for a 1× final concentration. Plates were then incubated at 37° C. and 5% CO2 for 3 hours followed by transferring of cell suspensions from each well into 12-tube PCR strips. The PCR strips were spun in a tip rack at 1000 rpm for 5 minutes to pellet cells and media was then removed by pipetting without disturbing the cell pellet.
To prepare for Western Blot analysis, cell pellets were resuspend in 40 ul 1× LDS-PAGE sample buffer (Invitrogen, cat. # NP0008)+2× Halt phophatase and protease inhibitor cocktail (Thermo Scientific, cat. #1861284), followed by sonicating each with microtip sonicator set at 5 for 8-10 seconds. Five ul of 10× NuPage Sample Reducing Agent (with 50 mM DTT) was to each sample followed by heat denaturing at 70 C for 10 min on PCR machine. A total of 10 μl per sample was loaded into each lane of a 4-20% Tris-Glycine Criterion 26-well gel (Biorad, cat. #345-0034) for the phospho-mu2 blot and 10 μl per lane in a 4-12% Bis-Tris (+MES buffer) NuPAGE 26-well gel (Invitrogen, cat. # WG1403BX10) for the mu2 blot. For controls, 2 ng of phospho-mu2 or 20 ng mu2/Flag proteins were loaded in the last well of each gel. After SDS-PAGE, samples on each gel were transferred to PVDF membrane using an iBlot and membranes were blocked for one hour in TBST+5% milk, followed by wash 3× for 5-10 min with TBST. Criterion gels were probed with rabbit anti-phospho-mu2 (1:5000; a rabbit polyclonal antibody produced by New England Peptide and affinity purified at Lexicon) in TBST+5% BSA, whereas, NuPAGE gels were probed with mouse anti-Flag (1:500; Sigma, cat. # F1804) in TBST+5% milk, and these primary antibodies were incubated overnight at 4° C. on a rocker. […]

GST-Xa-hAAK1 = target: T1, GST-Xa-hAAK1 (Homo sapiens, UniProt Q2M2I8); assay: AAK1 Kinase Assay; assay type: biochemical; settings: ATP 22 μM
T1 construct: made in house
Procedure: The assays were performed in U-bottom 384-well plates. The final assay volume was 30 μl prepared from 15 μl additions of enzyme and substrates (fluoresceinated peptide (5-FAM)-Aha-[…]-NH2 and ATP) and test compounds in assay buffer (10 mM Tris-HCL pH 7.4, 10 mM MgCl2, 0.01% Tween-20 and 1.0 mM DTT). The reactions were initiated by the combination of bacterially expressed, GST-Xa-hAAK1 with substrates and test compounds. The reactions were incubated at room temperature for 3 hours and terminated by adding 60 μl of 35 mM EDTA buffer to each sample. The reactions were analyzed on the Caliper LabChip 3000 (Caliper, Hopkinton, Mass.) by electrophoretic separation of the fluorescent substrate and phosphorylated product. […] The final concentration of reagents in the assays are ATP, 22 μM; (5-FAM)-Aha-[…]-NH2, 1.5 μM; GST-Xa-hAAK1, 3.5 nM; and DMSO, 1.6%. Dose response curves were generated to determine the concentration required inhibiting 50% of kinase activity (IC50). Compounds were dissolved at 10 mM in dimethylsulfoxide (DMSO) and evaluated at eleven concentrations. IC50 values were derived by non-linear regression analysis.

mice = assay: formalin paw test; assay type: in vivo, mouse
Procedure: AAK1 homozygous (−/−) and their wild-type (+/+) littermates were tested using the formalin paw test in order to assess their acute and tonic nociceptive responses. For these tests, Automatic Nociception Analyzers (purchased from the Ozaki lab at University of California, San Diego) were used. A metal band was placed around the left hind paw of each mouse 30 minutes prior to testing. After the 30-minute acclimation period, 20 μl of 5% formalin is subcutaneously injected in the dorsal surface of the left hind paw. Mice were individually housed in cylindrical chambers for 45 minutes. Fresh 5% formalin solution was prepared by diluting formaldehyde (Formalde-fresh 20%, Fisher Scientific, Fair Lawn, N.J.) with distilled water. Investigatory compounds were administered 30 minutes prior to formalin injection.
A computer recorded flinches per minute, total flinches for phase I (acute phase=first 8 minutes), and total flinches for phase II (tonic phase=time between minutes 20-40) through an electromagnetic field. See Yaksh T L, Ozaki G, McCumber D, Rathbun M, Svensson C, Malkmus S, Yaksh M C. An automated flinch detecting system for use in the formalin nociceptive bioassay. J Appl Physiol., 2001; 90:2386-402.
The same test was used to confirm that the administration of an AAK1 inhibitor can also affect pain response.
A compound of the disclosure was tested in this assay at different doses. Gabapentin and pregabalin were used as positive controls. Results are shown below in Table 2, wherein the effect of gabapentin at 200 mg/kg is considered a 100% response, the % response for the other compounds is relative to the 200 mg/kg dose of gabapentin, “sc” means subcutaneous administration.

PC12 cells = settings: Kuai et al. 2011; cited from earlier work
[2] = 50 mg/kg sc, relative to gabapentin 200 mg/kg = 100% response

AAK1 (full length human) in HEK293F cells, sequence (Q2M2I8 1-822 limits assumed): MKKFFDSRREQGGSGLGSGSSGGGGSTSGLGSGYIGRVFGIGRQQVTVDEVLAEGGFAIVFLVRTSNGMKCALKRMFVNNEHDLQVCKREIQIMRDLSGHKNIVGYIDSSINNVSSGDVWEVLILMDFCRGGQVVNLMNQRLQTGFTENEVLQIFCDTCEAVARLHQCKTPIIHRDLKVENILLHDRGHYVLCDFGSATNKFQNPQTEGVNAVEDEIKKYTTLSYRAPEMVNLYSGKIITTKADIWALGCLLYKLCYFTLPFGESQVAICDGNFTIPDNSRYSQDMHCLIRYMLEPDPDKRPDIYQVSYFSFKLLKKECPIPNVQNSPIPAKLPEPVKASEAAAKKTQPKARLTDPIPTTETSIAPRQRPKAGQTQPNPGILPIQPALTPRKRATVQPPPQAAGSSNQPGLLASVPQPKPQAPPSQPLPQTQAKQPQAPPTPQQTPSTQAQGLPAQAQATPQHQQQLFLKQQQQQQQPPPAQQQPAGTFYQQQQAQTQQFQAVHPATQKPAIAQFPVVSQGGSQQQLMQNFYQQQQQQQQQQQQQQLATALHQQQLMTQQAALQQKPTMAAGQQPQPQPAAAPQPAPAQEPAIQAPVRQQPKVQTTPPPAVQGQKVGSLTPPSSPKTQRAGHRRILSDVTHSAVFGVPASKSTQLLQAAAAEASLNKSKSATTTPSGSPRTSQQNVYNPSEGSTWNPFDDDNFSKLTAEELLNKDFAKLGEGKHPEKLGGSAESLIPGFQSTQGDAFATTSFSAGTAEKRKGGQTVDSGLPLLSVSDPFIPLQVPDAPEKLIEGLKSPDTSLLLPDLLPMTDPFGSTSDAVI
T1 sequence (Q2M2I8 whole entry): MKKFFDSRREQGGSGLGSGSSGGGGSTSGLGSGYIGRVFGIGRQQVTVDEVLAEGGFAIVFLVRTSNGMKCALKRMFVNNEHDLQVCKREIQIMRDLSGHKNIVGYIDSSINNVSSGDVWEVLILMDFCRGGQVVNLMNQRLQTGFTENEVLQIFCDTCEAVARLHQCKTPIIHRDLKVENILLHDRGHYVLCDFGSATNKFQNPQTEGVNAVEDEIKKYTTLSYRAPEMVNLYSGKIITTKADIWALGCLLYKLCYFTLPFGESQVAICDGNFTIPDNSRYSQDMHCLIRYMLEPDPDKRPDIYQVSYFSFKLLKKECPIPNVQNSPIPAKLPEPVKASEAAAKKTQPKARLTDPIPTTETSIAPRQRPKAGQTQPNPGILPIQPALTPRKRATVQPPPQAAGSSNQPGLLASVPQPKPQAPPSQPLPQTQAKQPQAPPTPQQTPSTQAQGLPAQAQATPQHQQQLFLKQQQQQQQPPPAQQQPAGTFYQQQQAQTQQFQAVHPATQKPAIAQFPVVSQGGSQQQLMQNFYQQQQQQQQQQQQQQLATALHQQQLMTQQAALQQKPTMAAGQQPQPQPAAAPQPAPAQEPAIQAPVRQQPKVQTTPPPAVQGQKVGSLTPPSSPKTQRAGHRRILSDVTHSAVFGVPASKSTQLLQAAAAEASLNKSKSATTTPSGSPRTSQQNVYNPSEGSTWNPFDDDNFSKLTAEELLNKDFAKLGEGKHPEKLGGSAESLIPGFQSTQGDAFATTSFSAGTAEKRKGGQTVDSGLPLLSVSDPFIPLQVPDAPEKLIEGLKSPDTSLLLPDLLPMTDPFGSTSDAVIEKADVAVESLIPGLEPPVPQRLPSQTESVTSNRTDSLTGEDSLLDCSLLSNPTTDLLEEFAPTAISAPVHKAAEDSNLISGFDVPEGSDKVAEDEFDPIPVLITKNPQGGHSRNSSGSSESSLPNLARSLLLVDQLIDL

Row | Structure (SMILES) | IC50 ([1]; IC50 ranges) [nM] | IC50 (GST-Xa-hAAK1; IC50 ranges) [nM] | further results
1 | COC(=O)Nc1cc2c(cn1)COc1c-2ccc(OCC(C)(N)CC(C)C)c1OC(F)F (racemic) [Example 76, methyl (8-((2-amino-2,4-dimethylpentyl)oxy)-7-(difluoromethoxy)-5H-chromeno[3,4-c]pyridin-2-yl)carbamate] | 1 to 10 | < 1 | 
2 | CC(C)C[C@H](N)COc1cc2c(cc1Cl)-c1ccncc1[C@@H](C(F)(F)F)O2 (single isomer, unassigned) [Example 27b] | 1 to 10 | 1 to 10 | 
3 | CC(C)C[C@H](N)COc1ccc2c(c1)OC(C(F)(F)F)c1cnccc1-2 (single isomer, unassigned; diastereomer 1) [Example 52] | 10 to 100 | 10 to 100 | 
4 | CC(C)C[C@@H](N)COc1ccc2c(c1)OCc1cnccc1-2 [Compound 5, (R)-1-(5H-chromeno[3,4-c]pyridin-8-yloxy)-4-methylpentan-2-amine] |  |  | Response (mice; 10 mg/kg sc, relative to gabapentin 200 mg/kg = 100% response): 45%; Response (mice; 30 mg/kg sc, relative to gabapentin 200 mg/kg = 100% response): 88%
5 | CC1Oc2cc(OCC(N)CC(C)(C)F)ccc2-c2ccncc21 (stereo not drawn) [Example 26, 4-fluoro-4-methyl-1-(5-methyl-5H-chromeno[3,4-c]pyridin-8-yloxy)pentan-2-amine] | 10 to 100 | 1 to 10 | 
6 | CC(=O)Nc1cc2c(cn1)COc1cc(OC[C@](C)(N)CC(C)C)ccc1-2 [Example 46, (R)—N-(8-((2-amino-2,4-dimethylpentyl)oxy)-5H-chromeno[3,4-c]pyridin-2-yl)acetamide] | 1 to 10 | 1 to 10 | 
7 | CC1Oc2cc(OCC(N)CCC(F)(F)F)ccc2-c2ccncc21 (stereo not drawn) [Example 57, 5,5,5-trifluoro-1-((5-methyl-5H-chromeno[3,4-c]pyridin-8-yl)oxy)pentan-2-amine] | 10 to 100 | 1 to 10 | 
8 | CC(=O)Nc1cc2c(cn1)COc1c-2ccc(OC[C@@H](N)CC(C)C)c1OC(F)F [Example 59, (S)—N-(8-((2-amino-4-methylpentyl)oxy)-7-(difluoromethoxy)-5H-chromeno[3,4-c]pyridin-2-yl)acetamide] | < 1 | 1 to 10 | 
9 | CC(=O)Nc1cc2c(cn1)COc1c-2ccc(OC[C@@H](N)CC(C)C)c1Cl [Example 63, (S)—N-(8-((2-amino-4-methylpentyl)oxy)-7-chloro-5H-chromeno[3,4-c]pyridin-2-yl)acetamide] | < 1 | < 1 | 
10 | CC(C)C[C@H](N)COc1ccc2c(c1)OCc1cnc(NC(=O)OC(C)C)cc1-2 [Example 64, (S)-isopropyl (8-((2-amino-4-methylpentyl)oxy)-5H-chromeno[3,4-c]pyridin-2-yl)carbamate] |  |  | IC50 ([1]; numeric values): 15 nM; IC50 (GST-Xa-hAAK1; numeric values): 5.2 nM
11 | COC(=O)Nc1cc2c(cn1)COc1cc(OCC(C)(N)CC(C)C)ccc1-2 (stereo not drawn) [Example 67, methyl (8-((2-amino-2,4-dimethylpentyl)oxy)-5H-chromeno[3,4-c]pyridin-2-yl)carbamate] | 10 to 100 | 1 to 10 | 
12 | CCC(=O)Nc1cc2c(cn1)COc1cc(OC[C@@H](N)CC(C)C)ccc1-2 [Example 73, (S)—N-(8-((2-amino-4-methylpentyl)oxy)-5H-chromeno[3,4-c]pyridin-2-yl)propionamide] | 10 to 100 | 1 to 10 | 
13 | COC(=O)Nc1cc2c(cn1)COc1c-2ccc(OC[C@@H](N)CC(C)C)c1Cl [Example 74, (S)-methyl (8-((2-amino-4-methylpentyl)oxy)-7-chloro-5H-chromeno[3,4-c]pyridin-2-yl)carbamate] | < 1 | 1 to 10 | 
14 | CCOC(=O)Nc1cc2c(cn1)COc1cc(OC[C@@H](N)CC(C)C)ccc1-2 [Example 77, (S)-ethyl (8-((2-amino-4-methylpentyl)oxy)-5H-chromeno[3,4-c]pyridin-2-yl)carbamate] | 1 to 10 | 1 to 10 | 
15 | CCOC(=O)Nc1cc2c(cn1)COc1cc(OC[C@@](C)(N)CC(C)C)ccc1-2 [Example 81, (S)-ethyl (8-((2-amino-2,4-dimethylpentyl)oxy)-5H-chromeno[3,4-c]pyridin-2-yl)carbamate] | < 1 | < 1 | 
16 | COC(=O)Nc1ncc2c(c1Cl)-c1cc(Cl)c(OC[C@@](C)(N)CC(C)C)cc1OC2 [Example 82, (S)-methyl (8-((2-amino-2,4-dimethylpentyl)oxy)-1,9-dichloro-5H-chromeno[3,4-c]pyridin-2-yl)carbamate] | 1 to 10 | 1 to 10 | 
17 | COC(=O)[C@@]1(O)C[C@H]2O[C@]1(C)n1c3ccccc3c3c4c(c5c6ccccc6n2c5c31)C(=O)NC4 [Example K252a, K252a] |  |  | effect on Neuregulin-1 induced neurite outgrowth (PC12 cells): potentiation of Neuregulin-1 induced neurite outgrowth
18 | NCC1(CC(=O)O)CCCCC1 [Gabapentin] |  |  | Response (mice; [2]): 60%; Response (mice; 200 mg/kg sc, considered a 100% response): 100%
19 | CC(C)C[C@H](CN)CC(=O)O [Pregabalin] |  |  | Response (mice; [2]): 90%
